In patent US20110130425A1, “Use of H3 Histaminergic Agonists for the Treatment of Addiction to Drugs of Abuse” (priority 2009, published 2011):

Legend:
[1] = system: reinforcement produced by cocaine; experiment: Reinforcement phase: cocaine self-administration dose/response; format: in vivo, rat; settings: L-histidine 500 mg/kg single dose one hour before reinforcement; even at 0.03 mg/kg cocaine; rats
alcohol seeking behavior = experiment: Relapse into seeking alcohol self-administration (reinstatement by alcohol or foot-shock stress); format: in vivo, Sprague-Dawley rat; settings: L-histidine 1 g/kg orally, rats
Method: Fourteen male Sprague-Dawley rats obtained from Charles-River weighing 200 g at the beginning of the protocol are used. Rats are water-deprived for the few hours before the first overnight session. Rats are placed in an operant chamber (Panlab) with two levers. Pressing the “active” lever provides access to 0.1 ml of a 20% sucrose solution under a continuous reinforcement program. A light above the active lever signals availability of the solution in a drinking chamber for 20 seconds.
The following daily sessions take 60 minutes and water is provided ad libitum. […] Afterwards, the program is increased to Fixed Ratio 2 (FR2), i.e., two lever presses give access to one reinforcement. Self-administration is maintained next to FR3 and finally to FR5.
Before extinction sessions, saline is administered orally (5 ml/kg) to all rats. For extinction training, rats are placed in the same operant chambers but no alcohol access or cue light is contingent on lever press. Once rats decrease lever press to less than 10 presses per hour they are considered ready for reinstatement (relapse) procedures.
Before the reinstatement sessions, saline 5 ml/kg or L-histidine 1 g/kg (dissolved in saline and adjusted to pH 5) are administered orally to the rats. […]

[2] = system: nicotine seeking behavior; experiment: Extinction and reinstatement of nicotine seeking, mouse intravenous operant self-administration; format: in vivo, C57B16/J mice; settings: L-histidine 1 g/kg or 2 g/kg; mice
Method: L-Histidine solution: L-Histidine (Sigma, H-8000) at a 155.15 g/mol concentration in 0.34 M phosphoric acid is prepared as follows. 1.5 g L-histidine are dissolved in 12 ml of 0.34 M phosphoric acid to obtain a 0.8 M solution of L-histidine at approximately pH 6. pH is verified and 0.1 g of NaCl added to a final concentration of 0.9%. Finally, the L-histidine solution is sterilized by filtration.
Animals: Male C57B16/J mice (Charles River, France) are housed individually in controlled laboratory conditions with the temperature maintained at 21±1° C., humidity at 55±10%, and light reversal cycle (light on at 20.00 h, light off at 08.00 h). Mice are tested during the dark phase of a light reversal cycle. Behavioural tests and animal care are conducted in accordance with the standard ethical guidelines (National Institutes of Health 1995; European Communities Directive 86/609 EEC) and the protocols are approved by the local ethical committee (CEEA-PRBB).
Apparatus: The self-administration experiments are conducted in mouse operant chambers (Model ENV-307A-CT, Medical Associates, Georgia, VT, USA). The experimental chambers are equipped with a house light, ventilator fan, drug infusion pump, liquid swivel with counterbalanced arm, and two manipulanda with cue lights that are located on either side of a food dipper. The manipulanda are holes (1.2 cm diameter). […]
The catheter is flushed daily with a saline solution containing heparin (30 UI/mL) in order to maintain its patency. The patency of intravenous catheters is evaluated periodically (approximately every 6 days) and whenever drug self-administration behavior appears to deviate dramatically from that observed previously. Patency is evaluated by the infusion of 0.1 ml of thiobarbital (5 mg/ml) through the catheter. […]
L-Histidine dosage: The first L-histidine dose is 1 g/kg. […] Dosage for other H3 histaminergic agonists or H3 histaminergic agonist precursors is determined considering the pharmacokinetic and toxicological characteristics of the compound. […]

N[C@@H](Cc1c[nH]cn1)C(=O)O [L-histidine]
tendency to seek cocaine (self-injections in 2 hours) [1]: diminished the tendency to seek cocaine
reinstatement of alcohol seeking behavior caused by stress (alcohol seeking behavior; foot-shock stress): decreases the reinstatement
reinstatement of alcohol seeking behavior caused by exposure to ethanol (alcohol seeking behavior): decreases the reinstatement
cue-induced reinstatement of nicotine seeking [2]: decreases cue-induced reinstatement
number of sessions required to achieve the extinction criteria (nicotine) [2]: shortens the number of sessions
responding during the first extinction session (nicotine) [2]: decreases or delays responding
